The target in this experiment is T1, mouse ANO2 (Mus musculus, UniProt Q8CFW1).
T1 sequence (Q8CFW1 1-1002): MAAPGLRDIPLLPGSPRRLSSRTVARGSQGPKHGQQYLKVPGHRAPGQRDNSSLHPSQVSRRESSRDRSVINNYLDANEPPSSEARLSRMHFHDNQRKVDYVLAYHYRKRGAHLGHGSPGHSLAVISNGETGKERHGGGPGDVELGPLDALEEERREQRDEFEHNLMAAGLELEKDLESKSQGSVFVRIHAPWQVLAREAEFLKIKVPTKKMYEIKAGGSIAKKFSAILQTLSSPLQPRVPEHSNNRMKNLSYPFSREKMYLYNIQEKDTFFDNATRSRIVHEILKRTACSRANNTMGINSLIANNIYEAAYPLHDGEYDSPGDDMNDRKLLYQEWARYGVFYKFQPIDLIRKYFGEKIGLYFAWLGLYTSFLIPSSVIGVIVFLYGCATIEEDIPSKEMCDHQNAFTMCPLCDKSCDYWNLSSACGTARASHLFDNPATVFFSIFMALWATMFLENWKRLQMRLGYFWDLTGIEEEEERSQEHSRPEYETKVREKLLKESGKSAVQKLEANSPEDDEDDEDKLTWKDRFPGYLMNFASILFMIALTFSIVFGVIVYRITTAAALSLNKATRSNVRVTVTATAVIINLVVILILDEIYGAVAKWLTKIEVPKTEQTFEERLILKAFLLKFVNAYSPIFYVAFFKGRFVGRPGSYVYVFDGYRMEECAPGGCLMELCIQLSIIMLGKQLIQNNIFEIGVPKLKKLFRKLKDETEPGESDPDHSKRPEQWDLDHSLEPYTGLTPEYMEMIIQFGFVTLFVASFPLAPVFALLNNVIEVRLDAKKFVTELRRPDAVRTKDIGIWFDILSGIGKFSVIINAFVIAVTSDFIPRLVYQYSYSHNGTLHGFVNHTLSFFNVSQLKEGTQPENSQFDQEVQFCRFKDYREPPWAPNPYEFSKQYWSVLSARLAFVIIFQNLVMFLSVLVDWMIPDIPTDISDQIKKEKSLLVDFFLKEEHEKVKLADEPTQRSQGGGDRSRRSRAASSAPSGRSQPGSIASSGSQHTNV
As to the kind of experiment: YFP quenching assay in FRT cells expressing ANO2. It counts as cell-based. Conditions: up to 10 μM, 100 μM ATP.

With `COc1ccccc1C=NNC(=O)COc1ccc(Cl)cc1C` [Ani9, 2-(4-chloro-2-methylphenoxy)-N-[(2-methoxyphenyl)methylideneamino]-acetamide], the “effect on ANO2 activity” value was “did not significantly affect”.

For the origin of these results see article PMC4878759 (PLoS ONE, 2016).
